Measured values as given in patent US20240246960A1 (adMare Therapeutics Society, priority 2021, published 2024).
Where two headings read alike, the source gives them in different places.

Tests used:
HCT116 spheroids = assay: Spheroid + radiation colony forming cell survival assay (SF), HCT116; type: cell-based; conditions: 8 Gy
Procedure: (§1) Multicellular tumour spheroids determination of compound inhibition of pDNA-PK induction following radiation. Tumour spheroids were grown to approximately 0.5 mm in diameter and irradiated with 20 Gy in combination with inhibitor test compounds to determine their potency. Inhibitor concentration for 50% reduction in pDNA-PK induction (IC50) was determined via immunohistochemical staining in spheroid cryosections taken 2 hours following radiation. For cell survival endpoint 8 Gy radiation was used and 3 hours following radiation spheroids were dissociated, counted and plated for colony forming endpoint.
Spheroid+radiation colony forming cell survival assay (SF). Radiation 8 Gy. Drug: serial dilution 5 μM down to 10 nM (12 wells×2 repeat). Spheroids: 5-10 spheroids per well ([…]). HCT116. 5% O2 and 5% CO2. 96 well pate format for assay. Protocol: pre incubate 1 hour with drug, irradiate 8 Gy, post incubate 3 hrs with drug, dissociate spheroids and count cells and plate for colony forming assay. Endpoint: wait 4-7 days and count colonies. Analysis: determine EC50 concentration that increase cell kill by 50% over radiation alone.
(§2) Multicellular tumour spheroids were used to determine potency of test compounds in a 3D tissue environment using inhibition of pDNA-PK induction following radiation or cell survival as the endpoint. For the pDNA-PK endpoint HCT116 or FaDU tumour spheroids were grown to approximately 0.5 mm in diameter and irradiated with 20 Gy in combination with inhibitor test compounds to determine their potency. Experiments were carried out in 96 well plates containing 0.7 mls of MEM media containing 10% FBS and 10 mM glucose under 20% O2 & 5% CO2 at 37° C. Following dilution of compounds 1:1000 from DMSO stocks, compounds were serially diluted from 10 μM down to 3.5 nM and 5-10 spheroids added. 96 well plates were constantly stirred to avoid spheroids settling during the course of the experiment. The inhibitor concentration for 50% reduction in pDNA-PK induction (EC50) was determined via immunohistochemical staining in spheroid cryosections taken 2 hours following radiation using anti-pDNA-PK (ser 2056) and fixed immediately in formalin following sectioning. For cell survival endpoint 8 Gy radiation was used and, 3 hours following radiation, spheroids were dissociated, counted and plated for colony forming endpoint. Data presented in the table compound potency as EC50 [μM].

[1] = target: T1, pDNA-PK ser2056 induction in FaDU spheroids (Homo sapiens, UniProt P78527); assay: Multicellular tumour spheroid + radiation, pDNA-PK inhibition, FaDU; type: cell-based; conditions: 20 Gy
T1 construct: host or cells: FaDu
Procedure: as §1
Spheroid+radiation pDNA-PK. Radiation: 20 Gy. Drug: serial dilution 5 or 10 μM down to 3.5 nM (11 wells). Spheroids: 3-6 spheroids per well (300-500 μm diameter). 20% O2 and 5% CO2. 96 well plate format. Endpoint: fluorescent immunostain pDNA-PK ser2056 and image on microscope. Analysis: determine EC50 concentrations that decreases pDNA-PK induction […] after irradiation.
as §2

[2] = target: T2, pDNA-PK ser2056 induction in HCT116 spheroids (Homo sapiens, UniProt P78527); assay: Multicellular tumour spheroid + radiation, pDNA-PK inhibition, HCT116; type: cell-based; conditions: 20 Gy
T2 construct: endogenous in cells; host or cells: HCT116 multicellular tumour spheroids
Summary of the method: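 EC50 (μM) is concentration halving radiation-induced pDNA-PK ser2056, scored by fluorescent immunostaining of cryosections 2 h after 20 Gy. HCT116 tumour spheroids (~0.5 mm, stirred, 20% O2/5% CO2, 37 °C) exposed to serial dilutions from 10 or 5 μM to 3.5 nM starting 1 h before irradiation.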

[3] = Microsomal stability assay, mouse liver microsomes; conditions: for microsomal CLint at 0.1 uM: male, CD-1, mouse, liver microsomes, pH 7.4, Microsomal Stability Mouse Clint, 0.1 mg/mL microsomes, 0.1 uM compound
[4] = Hepatocyte stability assay, mouse hepatocytes; type: in vitro ADME; conditions: for hepatocyte CLint at 1 uM: male, CD-1, mouse, cryopreserved hepatocytes, pH 7.3, 0.7 million cells per mL, 1 uM compound
Summary of the method: (§3)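 Pooled cryopreserved hepatocytes (male CD-1 mouse, or mixed-gender human donors; ≥10 each) at 0.7 million viable cells/mL in Krebs-Henseleit buffer pH 7.3, with 1 uM compound (≤0.01% DMSO). Incubated up to 2 h at 37 °C/5% CO2, quenched with acetonitrile; parent compound followed by HPLC-MS/MS peak area.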

[5] = Hepatocyte stability assay, human hepatocytes; type: in vitro ADME; conditions: for hepatocyte CLint at 1 uM: both sexes, human, cryopreserved hepatocytes, pH 7.3, 0.7 million cells per mL, 1 uM compound
Summary of the method: as §3

[6] = Example 8, spheroid, read-out: Cell line: HCT116 Colony forming endpoint Surviving Fraction EC50
[7] = Example 9 Study 2, read-out: Spheroid Cell line: HCT116 Colony forming endpoint Surviving Fraction EC50
[8] = Example 8, spheroid, read-out: Cell line: FaDU Immunohistochemical endpoint pDNA-PK inhibition EC50
[9] = Example 9 Study 2, 20% O2, read-out: Spheroid Cell line: FaDU Immunohistochemical endpoint pDNA-PK inhibition EC50
[10] = Example 7, spheroid, cell line HCT115 [sic], 20% O2, read-out: EC50 (pDNA-PK inhibition, immunohistochemical endpoint)
[11] = Example 8, spheroid, read-out: Cell line: HCT116 Immunohistochemical endpoint pDNA-PK inhibition EC50
[12] = Example 9 Study 2, 20% O2, read-out: Spheroid Cell line: HCT116 Immunohistochemical endpoint pDNA-PK inhibition EC50

Row | SMILES | EC50 (HCT116 spheroids; [6]) [µM] | EC50 (HCT116 spheroids; [7]) [µM] | EC50 [1, 8] [µM] | EC50 [1, 9] [µM] | EC50 [2, 10] [µM] | EC50 [2, 11] [µM] | EC50 [2, 12] [µM] | Microsomal Stability (mouse) % rem. 60 min [3] | microsomal CLint at 0.1 uM [3] [µL/min/mg] | Hepatocyte Stability (mouse) % rem. 120 min [4] | hepatocyte CLint at 1 uM [4] [µL/min/1e6 cells] | Hepatocyte Stability (human) % rem. 120 min [5] | hepatocyte CLint at 1 uM [5] [µL/min/1e6 cells]
1 | Cc1nc(C(F)(F)F)cn1[C@H]1CC[C@@H](Oc2nc(N3CCOCC3)cc3ncccc23)CC1 [Compound 17i, 4-(5-(((1s,4s)-4-(2-methyl-4-(trifluoromethyl)-1H-imidazol-1-yl)cyclohexyl)oxy)-1,6-naphthyridin-7-yl)morpholine] | 0.01 to 0.5 | 0.01 to 0.5 | 0.5 to 1 | 0.5 to 1 | 1 to 10 | 1 to 10 | 1 to 10 |  |  |  |  |  | 
2 | CCOCCOc1cnc(N[C@H]2CC[C@@H](Oc3nc(N4CCOCC4)cc4ncc(O)cc34)CC2)nc1 [Compound 19b, 5-(((1s,4s)-4-((5-(2-Ethoxyethoxy)pyrimidin-2-yl)amino)cyclohexyl)oxy)-7-morpholino-1,6-naphthyridin-3-ol] | 0.01 to 0.5 | 0.01 to 0.5 | 0.5 to 1 | 0.5 to 1 | 0.01 to 0.5 | 0.01 to 0.5 | 0.01 to 0.5 |  |  |  |  |  | 
3 | COc1cnc(N[C@H]2CC[C@@H](Oc3nc(N4CCOCC4)cc4ncc(O)cc34)CC2)nc1 [Compound 19c, 5-(((1s,4s)-4-((5-Methoxypyrimidin-2-yl)amino)cyclohexyl)oxy)-7-morpholino-1,6-naphthyridin-3-ol] | 0.01 to 0.5 | 0.01 to 0.5 | 0.5 to 1 | 0.5 to 1 | 1 to 10 | 1 to 10 | 1 to 10 |  |  |  |  |  | 
4 | FC(F)Oc1cnc(N[C@H]2CC[C@@H](Oc3nc(N4CCOCC4)cc4ncccc34)CC2)nc1 [Compound 35, 5-(Difluoromethoxy)-N-((1s,4s)-4-((7-morpholino-1,6-naphthyridin-5-yl)oxy)cyclohexyl)pyrimidin-2-amine] | 1 to 10 | 1 to 10 |  |  | 1 to 10 | 1 to 10 | 1 to 10 | E (% remaining = 0-25%) | > 116 |  |  |  | 
5 | O=C(N[C@H]1CC[C@@H](Oc2nc(N3CCOCC3)cc3ncccc23)CC1)c1ccc(C(F)(F)F)o1 [Compound 133, N-((1s,4s)-4-((7-Morpholino-1,6-naphthyridin-5-yl)oxy)cyclohexyl)-5-(trifluoromethyl)furan-2-carboxamide] | 1 to 10 | 1 to 10 |  |  | 1 to 10 | 1 to 10 | 1 to 10 | E (% remaining = 0-25%) | > 116 |  |  |  | 
6 | O=C(N[C@H]1CC[C@@H](Oc2nc(N3CCOCC3)cc3ncccc23)CC1)c1cc[nH]c1 [Compound 140, N-((1s,4s)-4-((7-morpholino-1,6-naphthyridin-5-yl)oxy)cyclohexyl)-1H-pyrrole-3-carboxamide] |  |  |  |  | 0.01 to 0.5 |  | 0.01 to 0.5 | G (% remaining = 50-75%) | < 116 | G (% remaining = 50-75%) | < 8.2 | H (% remaining = 75-100%) | < 8.2
7 | O=C(N[C@H]1CC[C@@H](Oc2nc(N3CCOCC3)cc3ncccc23)CC1)c1ncco1 [Compound 142, N-((1s,4s)-4-((7-morpholino-1,6-naphthyridin-5-yl)oxy)cyclohexyl)oxazole-2-carboxamide] |  |  |  |  | 1 to 10 |  | 1 to 10 | G (% remaining = 50-75%) | < 116 | F (% remaining = 25-50%) | > 8.2 | H (% remaining = 75-100%) | < 8.2
8 | O=C(N[C@H]1CC[C@@H](Oc2nc(N3CCOCC3)cc3ncccc23)CC1)c1c[nH]cn1 [Compound 144, N-((1s,4s)-4-((7-morpholino-1,6-naphthyridin-5-yl)oxy)cyclohexyl)-1H-imidazole-4-carboxamide] |  |  |  |  | 1 to 10 |  | 1 to 10 | G (% remaining = 50-75%) | < 116 | H (% remaining = 75-100%) | < 8.2 | H (% remaining = 75-100%) | < 8.2
9 | CS(=O)(=O)Nc1cnc2cc(N3CCOCC3)nc(O[C@H]3CC[C@@H](n4ccnc4)CC3)c2c1 [Compound 161, N-(5-(((1s,4s)-4-(1H-imidazol-1-yl)cyclohexyl)oxy)-7-morpholino-1,6-naphthyridin-3-yl)methanesulfonamide] |  |  | 1 to 10 | 1 to 10 | 1 to 10 | 1 to 10 | 1 to 10 | F (% remaining = 25-50%) | < 116 | G (% remaining = 50-75%) | < 8.2 |  | 
10 | CS(=O)(=O)Nc1cnc2cc(N3CCOCC3)nc(O[C@H]3CC[C@@H](Nc4ncccn4)CC3)c2c1 [Compound 185, N-(7-morpholino-5-(((1s,4s)-4-(pyrimidin-2-ylamino)cyclohexyl)oxy)-1,6-naphthyridin-3-yl)methanesulfonamide] |  |  |  |  | 0.01 to 0.5 |  | 0.01 to 0.5 | G (% remaining = 50-75%) | < 116 | G (% remaining = 50-75%) | < 8.2 | H (% remaining = 75-100%) | < 8.2
